{"source": "patent US7833532B2", "about": "“Immunogenic lipopeptides comprising T-helper and cytotoxic T lymphocyte (CTL) epitopes” (The Council of The Queensland Institute of Medical Research, priority 2002, dated 2010)", "key": {"[1]": {"test_system": "syngeneic spleen cells pulsed with the CTL determinant", "details": "mouse"}, "Mem 71 influenza virus": {"test_system": "Mem 71 influenza virus", "details": "in vivo"}, "D1 cells": {"test_system": "D1 cells", "assay": "Maturation of D1 dendritic cells (surface MHC class II, flow cytometry)", "type": "cell-based, BALB/c mouse", "details": "D1 cells, overnight incubation, 0.45 nmoles/mL; LPS positive control"}, "splenocytes": {"test_system": "splenocytes", "assay": "IFN-gamma secreting splenocytes in mice vaccinated with […] peptides and challenged with B16-OVA", "type": "in vivo, C57BL/6 mice", "details": "20 nmoles s.c., B16-OVA challenge; for No. IFN-γ secreting splenocytes per 10^6 splenocytes, Average: average of three samples; for No. IFN-γ secreting splenocytes per 10^6 splenocytes: individual samples, in vitro stimulation with SIINFEKL", "description": "(§1) Each of 9 C57BL/6 mice (8-10 wks) were immunised subcutaneously with 20 nmoles of lipidated [P25]-Lys(Pam2Cys-Ser-Ser)-[[…]] ([…] disclosed as SEQ ID NO: 173) or non-lipidated [P25]-Lys-[[…]] ([…] disclosed as SEQ ID NO: 173) peptide in 100 μl volume of saline. In the case of lipidated peptide, lipid was attached between the two epitopes at the approximate centre of the molecule.\nCTL-specific IFN-γ-secreting cells were enumerated by an ELISPOT assay modified from that of Murali-Krishna et al., Immunity 8, 177-187, 1998. Flat-bottom polyvinyl chloride microtiter plates (96-well: Dynatech) were coated overnight with 50 μl of rat anti-(mouse IFN-γ) antibody (clone R4-14a2) at 5 μg/ml in PBS. Unoccupied sites on the wells were then blocked by incubation for 1 h with 10 mg of bovine serum albumin/ml in PBS, and the plates were washed three times with PBS containing 0.05% Tween 20 (PBST). Twofold dilutions of spleen or lymph node cells in T-cell medium were then added to the wells, together with 5×10^5 irradiated (2,200 rads, ^60Co source) syngeneic spleen cells from unimmunized mice and 10 U of recombinant human interleukin-2 (Pharmingen, San Diego, Calif.)/well. Cells were incubated at 37° C. in 5% CO2 for 18 h in the presence or absence of the CTL peptide at a concentration of 1 μg of peptide/ml. Cells were then lysed and removed by rinsing the plates, initially with distilled water and then PBST. Then, 50 μl of a 1/500 dilution of biotinylated anti-(mouse IFN-γ) antibody (clone XMG 1.2; Pharmingen) was added, and the plates were incubated at room temperature for 2 h. Plates were again washed, and 50 μl of streptavidin-alkaline phosphatase (Pharmingen; 1/400 dilution in 5 mg of bovine serum albumin/ml of PBST) was added to each well; the mixtures were then incubated for a further 2 h. […] When blue-green spots had developed, the plates were washed with water and dried, and the spots were counted with the aid of an inverted microscope.\nThe ability of the lipopeptide vaccine containing the ovalbumin CTL epitope ([…]) (SEQ ID NO: 173) to induce protection against melanoma cells expressing this CTL epitope (B16-OVA cells) was assessed. IFN-γ production was determined in mice inoculated with lipopeptide comprising a CDV-F T-helper epitope (P25) and a CTL epitope ([…]) (SEQ ID NO: 173) of ovalbumin linked via the epsilon amino group of an internal lysine residue positioned between said epitopes to Pam2Cys (i.e. the peptide [P25]-Lys(Pam2Cys-Ser-Ser)-[[…]] ([…] disclosed as SEQ ID NO: 173) listed in FIG. 2 and based upon SEQ ID NO: 174). […] (SEQ ID NO: 173) and the number of IFN-γ producing cells per 1,000,000 splenocytes was measured."}, "B16-OVA cells": {"test_system": "B16-OVA cells", "assay": "Protection against B16-OVA melanoma challenge (tumour growth)", "type": "in vivo, C57BL/6 mice", "details": "20 nmoles s.c., 2×10^5 B16-OVA cells 14 days later", "text": "FIG. 13 is a graphical representation showing protection against B16 melanoma with lipopeptide vaccination. C57BL/6 mice were vaccinated with 20 nmoles lipidated peptide [P25]-Lys(Pam2Cys-Ser-Ser)-[[…]] ([…] disclosed as SEQ ID NO: 173) (open circles), non-lipidated peptide [P25]-Lys-[[…]] ([…] disclosed as SEQ ID NO: 173) (open triangles) or with PBS (open squares) subcutaneously in the base of the tail. Mice were then challenged s.c. on the back 14 days later with 2×10^5 B16-OVA cells (n=6 per group) and tumour growth monitored as described (Anraku, et al., J Virol. 76; 3791-3799, 2002).\nas §1\n14 days after inoculation with non-lipidated [P25]-Lys-[[…]] ([…] disclosed as SEQ ID NO: 173) or lipidated peptide [P25]-Lys(Pam2Cys-Ser-Ser)-[[…]] […] Growing tumors were monitored, and the animals were sacrificed when tumor size reached 15 by 15 mm. Mean tumor area was calculated for each treatment group at the indicated number of days after the tumor challenge."}, "[2]": {"test_system": "Lewis Lung tumour cells transfected with ovalbumin", "assay": "Therapeutic treatment of Lewis Lung tumour expressing ovalbumin (tumour incidence and survival)", "type": "in vivo, mice", "details": "20 nmoles s.c. 4 and 11 days after tumour cells; versus non-lipidated peptide or PBS", "description": "FIG. 14 is a graphical representation showing therapeutic treatment of Lewis Lung tumour with a lipopeptide immunogen, as determined by the percentage of animals that remain tumor free following immunization. Mice were injected with 3×10^4 Lewis Lung tumour cells that had been transfected with ovalbumin and therefore expressed the CTL epitope […] (SEQ ID NO: 173) [Nelson et al. J Immunol. 166: 5557-5566, 2001]. Four days after receiving tumour cells, animals were inoculated with 20 nmoles lipidated peptide [P25]-Lys(Pam2Cys-Ser-Ser)-[[…]] ([…] disclosed as SEQ ID NO: 173) (open circles), non-lipidated peptide [P25]-Lys-[[…]] […] Animals were monitored for tumour incidence; animals were euthanased when tumour area exceeded 100 mm^2.\nFIG. 15 is a graphical representation showing therapeutic treatment of Lewis Lung tumour with a lipopeptide immunogen, as determined by measuring survival of animals following immunization. […] Animals were monitored for survival; animals were euthanased when tumour area exceeded 100 mm^2.\nMice were injected with 3×10^4 Lewis Lung tumour cells that had been transfected with ovalbumin and therefore expressed the CTL epitope (Nelson et al., J Immunol. 166: 5557-5566, 2001). […] Animals were monitored for tumour incidence and survival; animals were euthanased when tumour area exceeded 100 mm^2."}}, "note": "Several values for one entry are separate records, joined by “and”; a condition that tells them apart may be missing. Equal entries are not always repeated."}
{"molecule": "CCCCCCCCCCCCCCCC(=O)N[C@@H](CSCC(COC(=O)CCCCCCCCCCCCCCC)OC(=O)CCCCCCCCCCCCCCC)C(=O)N[C@@H](CO)C(=O)N[C@@H](CO)C(=O)NCCCC[C@H](NC(=O)[C@H](CO)NC(=O)[C@H](CCCCN)NC(=O)[C@H](CC(C)C)NC(=O)[C@H](CCC(=O)O)NC(=O)[C@@H](NC(=O)CNC(=O)[C@H](CCCCN)NC(=O)[C@@H](NC(=O)[C@H](CCC(N)=O)NC(=O)[C@H](Cc1ccccc1)NC(=O)[C@H](CCCNC(=N)N)NC(=O)[C@H](CC(N)=O)NC(=O)[C@H](CC(N)=O)NC(=O)[C@H](CC(C)C)NC(=O)[C@H](C)N)[C@@H](C)CC)C(C)C)C(=O)N[C@H](C(=O)N[C@@H](Cc1ccc(O)cc1)C(=O)N[C@@H](CCC(N)=O)C(=O)N[C@@H](CCCNC(=N)N)C(=O)N[C@H](C(=O)N[C@@H](CCCNC(=N)N)C(=O)N[C@@H](C)C(=O)N[C@@H](CC(C)C)C(=O)N[C@H](C(=O)O)C(C)C)[C@@H](C)O)[C@@H](C)O", "note": "(stereo partly drawn) [[Th]-Lys(Pam3Cys-Ser-Ser)-[CTL]]", "values": [{"measurement": "CTL determinant specific cytotoxicity (specific lysis) in vivo", "setting": "[1]", "value": "marked enhancement of specific lysis in vivo"}]}
{"molecule": "ALNNRFQIKGVELKSKTYQRTRALV [[Th]-Lys-[CTL]]", "values": [{"measurement": "reduction in viral load in the lungs compared to PBS alone", "setting": "Mem 71 influenza virus", "value": 65, "unit": "%"}, {"measurement": "maturation of dendritic cells / up-regulation of MHC class II expression (comparative, in words)", "setting": "D1 cells", "value": "least effective"}]}
{"molecule": "KLIPNASLIENCTKAELKSIINFEKL [reference compound]", "values": [{"measurement": "No. IFN-γ secreting splenocytes per 10^6 splenocytes, Average", "setting": "splenocytes", "value": 14, "unit": "per 10^6 splenocytes"}, {"measurement": "No. IFN-γ secreting splenocytes per 10^6 splenocytes", "setting": "splenocytes", "value": "18 per 10^6 splenocytes and 14 per 10^6 splenocytes and 10 per 10^6 splenocytes"}, {"measurement": "tumour size", "setting": "B16-OVA cells; 15 day period", "value": "greater than 75 mm^2"}]}
{"molecule": "[P25]-Lys(Pam2Cys-Ser-Ser)-[SIINFEKL]: peptide [P25]-Lys-[SIINFEKL] and a lipid of the Formula (IV) conjugated to the epsilon-amino group of the internal lysine (KLIPNASLIENCTKAELKSIINFEKL; Pam2Cys-Ser-Ser lipid on internal lysine)", "values": [{"measurement": "percentage of animals with fewer lesions developing (tumour free)", "setting": "[2]", "value": "significantly higher"}, {"measurement": "survival", "setting": "[2]", "value": "survived for longer"}, {"measurement": "No. IFN-γ secreting splenocytes per 10^6 splenocytes, Average", "setting": "splenocytes", "value": 227, "unit": "per 10^6 splenocytes"}, {"measurement": "No. IFN-γ secreting splenocytes per 10^6 splenocytes", "setting": "splenocytes", "value": "284 per 10^6 splenocytes and 205 per 10^6 splenocytes and 192 per 10^6 splenocytes"}, {"measurement": "tumour growth (in words)", "setting": "B16-OVA cells; over a 15 day period", "value": "No tumour growth"}]}
